From patent publication US9624167B2, “N-(4-hydroxy-4-methyl-cyclohexyl)-4-phenyl-benzenesulfonamides and N-(4-hydroxy-4-methyl-cyclohexyl)-4-(2-pyridyl)benzenesulfonamides and their therapeutic use” (PIMCO 2664 LIMITED, priority 2013, dated 2017)
Read-outs that look alike come from different tables or passages of the source. Marks after values point to notes of the source that are not given here.

Tests used:
[1] = biological target: T1, hERG (Homo sapiens, UniProt Q12809); assay: hERG Ion Channel Assay (Q-patch, hERG-CHO cells); assay type: cell-based; details: human, CHO cells stably transfected with hERG (hERG-CHO), pH 7.4, 30 μM, hERG tail current
T1 construct: expressed in transfected cells; host or cells: Chinese Hamster Ovary cells (hERG-CHO), stably transfected
T1 sequence (Q12809 whole entry): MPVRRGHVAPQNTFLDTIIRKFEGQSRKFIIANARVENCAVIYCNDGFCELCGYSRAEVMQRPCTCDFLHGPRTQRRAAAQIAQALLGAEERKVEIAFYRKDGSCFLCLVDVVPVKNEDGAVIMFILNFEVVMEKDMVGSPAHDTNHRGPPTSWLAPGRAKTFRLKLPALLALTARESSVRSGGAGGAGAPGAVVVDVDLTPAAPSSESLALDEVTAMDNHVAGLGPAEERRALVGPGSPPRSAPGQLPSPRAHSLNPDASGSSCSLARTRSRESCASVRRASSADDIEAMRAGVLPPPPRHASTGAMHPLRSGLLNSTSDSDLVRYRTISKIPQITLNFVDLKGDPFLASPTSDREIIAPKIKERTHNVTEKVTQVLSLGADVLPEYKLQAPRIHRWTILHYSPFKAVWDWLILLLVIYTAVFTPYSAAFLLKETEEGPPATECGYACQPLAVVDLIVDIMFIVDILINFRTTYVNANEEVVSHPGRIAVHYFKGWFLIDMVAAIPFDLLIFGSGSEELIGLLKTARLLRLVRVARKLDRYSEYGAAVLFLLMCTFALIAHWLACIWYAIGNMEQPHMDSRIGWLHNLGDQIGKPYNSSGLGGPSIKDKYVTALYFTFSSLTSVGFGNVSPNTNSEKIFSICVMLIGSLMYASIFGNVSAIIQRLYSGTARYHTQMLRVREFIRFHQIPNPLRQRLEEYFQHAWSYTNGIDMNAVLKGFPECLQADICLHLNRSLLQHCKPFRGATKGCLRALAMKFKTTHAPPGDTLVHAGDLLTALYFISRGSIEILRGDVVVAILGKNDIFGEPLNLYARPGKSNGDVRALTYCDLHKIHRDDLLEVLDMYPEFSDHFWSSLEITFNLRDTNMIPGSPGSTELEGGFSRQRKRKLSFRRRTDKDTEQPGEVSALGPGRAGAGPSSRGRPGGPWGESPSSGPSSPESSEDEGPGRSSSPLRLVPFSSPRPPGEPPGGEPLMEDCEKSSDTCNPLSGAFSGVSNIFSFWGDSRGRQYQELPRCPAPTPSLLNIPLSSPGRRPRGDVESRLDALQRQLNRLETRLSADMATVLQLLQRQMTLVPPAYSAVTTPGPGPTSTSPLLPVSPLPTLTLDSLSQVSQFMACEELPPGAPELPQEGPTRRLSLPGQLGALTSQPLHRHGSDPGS
Description: The activity of the compounds against the hERG ion channel was tested. The assay was conducted using the automated path-clamp, Q-patch method using stably transfected Chinese Hamster Ovary cells (hERG-CHO). hERG-CHO cells were cultured in F-12 Kaighn's Nutrient Mixture medium (Invitrogen)+10% FBS at 37° C. for 1-3 days. Cells were kept at 30° C. for 24 to 48 hours prior to patch clamping in order to increase the hERG current amplitude. Subsequently, the cells were harvested by trypsinisation, and kept in Serum Free Medium (SFM) in the Q-patch cell preparation state for up to 6 hours at room temperature before being washed and re-suspended in extracellular solution and applied to the patch clamp sites for data recording.
Patch-clamp voltage protocol: After whole cell configuration was achieved, the cell was held at −80 mV. A 50 millisecond pulse to −40 mV was delivered to measure the leaking current, which was subtracted from the tail current on-line. Then the cell was depolarized to +20 mV for 2 seconds, followed by a one second pulse to −40 mV to reveal hERG tail current. This paradigm was delivered once every 5 seconds to monitor the current amplitude.
Extracellular solution: 137 mM NaCl, 4 mM KCl, 1.8 mM CaCl2, 1 mM MgCl2, 10 mM D(+)-glucose, 10 mM HePES buffer (pH adjusted to 7.4 with NaOH).
After the whole cell configuration was achieved, the extracellular solution (control) was applied first and the cell was stabilized for 2 minutes in extracellular solution. The test compound was then applied from low concentrations to high concentrations cumulatively. The cell was incubated with each test concentration for 5 minutes. During each incubation, the cell was repetitively stimulated using the voltage protocol described above, and the tail current amplitude was continuously monitored.
• (1) Peak tail current >100 pA in control. • (2) Initial run-down <30% and the run-down stops before first application of the test compound. • (3) Leak currents <50% of the control peak tail currents at any time. • (4) rs<20 MΩ throughout the experiment.
The degree of inhibition (%) was obtained by measuring the tail current amplitude, induced by a one second test pulse to −40 mV after a two second pulse to +20 mV, before and after incubation with the test compound. The difference in current was normalized to control and multiplied by 100 in order to obtain the percent inhibition.
Concentration (log) response curves were fitted to a logistic equation (three parameters assuming complete block of the current at very high test compound concentrations) to generate estimates of the 50% inhibitory concentration (IC50). The concentration-response relationship of each compound was constructed from the percentage reductions of current amplitude by sequential concentrations.

[2] = Rodent pharmacokinetics study; assay type: in vivo, Sprague-Dawley rats; details: rat
[3] = Human Liver Microsomal Stability; assay type: in vitro ADME; details: both sexes, pooled liver microsomes, 1 μM compound
Description: Metabolic stability was measured by determining the rate of disappearance of compound in the presence of human liver microsomal preparations, as quantified by liquid chromatography mass-spectrometry and […] mass-spectrometry (LC-MS/MS).
Metabolic stability of test compounds was measured by determination of the rate of disappearance of the compound when incubated in the presence of human liver microsomes. Liver microsomes are prepared from the endoplasmic reticulum of hepatocytes and are the primary source of the most important enzymes (cytochrome P450s) involved in drug metabolism. Study of drug stability in the presence of liver microsomes is accepted as a valuable model permitting rapid prediction of in vivo drug stability.
Human liver microsomes were obtained from a commercial source. Test compounds (1 μM) were incubated with pooled liver microsomes (male and female). Samples were incubated for a 60 minute period and removed at up to 6 time points and analysed by LC-MS/MS for the presence/amount of test compounds.
Microsomes (final protein concentration 0.25 or 0.5 mg/mL), 0.1 M phosphate buffer pH 7.4, and test compound (final concentration 1 μM; diluted from 10 mM stock solution to give a final DMSO concentration of 0.1%) were incubated at 37° C. prior to the addition of Nicotinamide adenine dinucleotide phosphate (NADPH, final concentration 1 mM) to initiate the reaction. The final incubation volume was 100 μL. A control incubation was included for each compound tested, where 0.1 M phosphate buffer pH 7.4 was added instead of NADPH. […]
Each compound was incubated for 0, 5, 15, 30, 45 or 60 minutes. The reactions were stopped by the addition of 100 μL ice-cold acetonitrile containing internal standard (0.001 mM glipizide) at the appropriate time points. The incubation plates were centrifuged at 4000 rpm for 15 minutes at 4° C. to precipitate the protein and 0.1 mL aliquots were analysed using LC-MS/MS, with the conditions shown in the following table.
From a plot of the natural logarithm of the peak area ratio (i.e., the ratio of compound peak area:internal standard peak area) against time, the gradient of the line was determined.

[4] = tested on: collagen-induced arthritis; assay: Mouse Collagen-Induced Arthritis; assay type: in vivo, DBA/1j mice
Description: Seven- to eight-week-old male DBA/1j mice were used for all procedures. Animals were housed in groups of 10, and were maintained at 21° C.±2° C. on a 12-hour light/dark cycle with food and water ad libitum. […]. All mice were immunised subcutaneously with 200 μg of bovine type II collagen in CFA. 21 days later, all mice were immunised subcutaneously with 100 μg of bovine type II collagen in IFA.
The mice started to develop signs and symptoms of arthritis following the ‘booster’ immunisation.
For macroscopic assessment of arthritis, the following signs were monitored in each paw of each mouse three times per week and summed to generate the Arthritic Index (AI) (the maximum AI for one animal is 16): • 0=no visible effects of arthritis. • 1=oedema and/or erythema of 1 digit. • 2=oedema and/or erythema of 2 digits. • 3=oedema and/or erythema of more than 2 digits. • 4=severe arthritis of entire paw and digits.
Animals were sorted into treatment groups with a mean arthritic index of 2.5 and then dosed once daily for 14 days with compound by oral gavage for test compounds, or by subcutaneous injection at a dose of 10 mg/kg for the positive control, etanercept. After completion of the experiment, the mice were sacrificed.
The data were analysed by generating an average of the arthritic index across each treatment group. The mean arthritic index was then compared to the arthritic index of control (untreated) animals using the following formula to generate a percentage inhibition of disease.

[5] = pH 7.4, human liver microsomes 0.25 mg/mL protein, 5 time points 0-60 min, one replicate, read-out: T1/2 (1)
[6] = pH 7.4, human liver microsomes 0.5 mg/mL protein, 6 time points 0-60 min, two replicates, read-out: T1/2 (2)
[7] = 10 mg/kg/day oral gavage, once daily for 14 days, arthritic index vs control
[8] = dosed at 0.5 mg/kg intravenously (*)

SMILES | inhibition at 5 min, 30 µM [1] | half-life at 1 μM [3, 5] | half-life at 1 μM [3, 6] | further results
Cc1cc(S(=O)(=O)NC2CCC(C)(O)CC2)ccc1-c1ccc(F)cc1F (single isomer, unassigned) [REF001, reference compound] | 60% | 0.717 h | – | p.o. AUC ([2]; dosed at 10 mg/kg orally (‡)): 4766 ng·min/mL
O=S(=O)(N[C@H]1CC[C@H](O)CC1)c1ccc(-c2ncc(Cl)cc2Cl)cc1 [ABD836, reference compound] | 50% | > 15 h | – | –
C[C@]1(O)CC[C@H](NS(=O)(=O)c2ccc(-c3ccc(F)cc3F)cc2)CC1 [ABD900, reference compound] | 51% | – | 1.45 h | –
C[C@]1(O)CC[C@H](NS(=O)(=O)c2ccc(-c3ccc(Cl)cc3C#N)cc2)CC1 [HMC-C-01-A, 4′-Chloro-2′-cyano-N-((1r,4r)-4-hydroxy-4-methylcyclohexyl)biphenyl-4-sulfonamide] | 79% | 1.37 h | – | % inhibition of disease ([4]; 0.3 mg/kg/day oral gavage, once daily for 14 days): 60%; % inhibition of disease ([4]; 1 mg/kg/day oral gavage, once daily for 14 days): 50%; % inhibition of disease ([4]; 3 mg/kg/day oral gavage, once daily for 14 days): 60%; % inhibition of disease [4, 7]: 40%; Efficacy compared with positive control etanercept ([4]; low doses (0.3 and 3 mg/kg/day) vs etanercept 10 mg/kg subcutaneous): greater efficacy than the marketed treatment, etanercept, at low doses
C[C@]1(O)CC[C@@H](NS(=O)(=O)c2ccc(-c3ccc(Cl)cc3C#N)cc2)CC1 [HMC-C-01-B, 4′-Chloro-2′-cyano-N-((1s,4s)-4-hydroxy-4-methylcyclohexyl)-[1,1′-biphenyl]-4-sulfonamide] | 74% | – | 1.17 h | % inhibition of disease [4, 7]: 26%
C[C@]1(O)CC[C@H](NS(=O)(=O)c2ccc(-c3ccc(F)cc3C(F)(F)F)cc2)CC1 [HMC-C-02-A, 4′-Fluoro-N-((1r,4r)-4-hydroxy-4-methylcyclohexyl)-2′-(trifluoromethyl)biphenyl-4-sulfonamide] | 57% | 0.917 h | – | % inhibition of disease [4, 7]: 61%
C[C@]1(O)CC[C@@H](NS(=O)(=O)c2ccc(-c3ccc(F)cc3C(F)(F)F)cc2)CC1 [HMC-C-02-B, 4′-Fluoro-N-((1s,4s)-4-hydroxy-4-methylcyclohexyl)-2′-(trifluoromethyl)-[1,1′-biphenyl]-4-sulfonamide] | 94% | – | 0.3 h | –
C[C@]1(O)CC[C@H](NS(=O)(=O)c2ccc(-c3c(F)cc(F)cc3F)cc2)CC1 [HMC-C-03-A, 2′,4′,6′-Trifluoro-N-((1r,4r)-4-hydroxy-4-methylcyclohexyl)biphenyl-4-sulfonamide] | 45% | 1.4 h | – | –
C[C@]1(O)CC[C@@H](NS(=O)(=O)c2ccc(-c3c(F)cc(F)cc3F)cc2)CC1 [HMC-C-03-B, 2′,4′,6′-Trifluoro-N-((1s,4s)-4-hydroxy-4-methylcyclohexyl)-[1,1′-biphenyl]-4-sulfonamide] | 36% | – | 0.8 h | i.v. AUC [2, 8]: 816* ng·min/mL
C[C@]1(O)CC[C@H](NS(=O)(=O)c2ccc(-c3ccc(F)cc3F)c(F)c2)CC1 [HMC-C-04-A, 2,2′,4′-Trifluoro-N-((1r,4r)-4-hydroxy-4-methylcyclohexyl)-[1,1′-biphenyl]-4-sulfonamide] | 69% | – | 1.67 h | –
C[C@]1(O)CC[C@@H](NS(=O)(=O)c2ccc(-c3ccc(F)cc3F)c(F)c2)CC1 [HMC-C-04-B, 2,2′,4′-Trifluoro-N-((1s,4s)-4-hydroxy-4-methylcyclohexyl)-[1,1′-biphenyl]-4-sulfonamide] | – | – | 1.78 h | i.v. AUC [2, 8]: 1589* ng·min/mL
C[C@]1(O)CC[C@H](NS(=O)(=O)c2ccc(-c3ncc(F)cc3F)c(F)c2)CC1 [HMC-N-01-A, 4-(3,5-Difluoropyridin-2-yl)-3-fluoro-N-((1r,4r)-4-hydroxy-4-methylcyclohexyl)benzenesulfonamide] | 2% | 2.92 h | – | % inhibition of disease [4, 7]: 45%
C[C@]1(O)CC[C@@H](NS(=O)(=O)c2ccc(-c3ncc(F)cc3F)c(F)c2)CC1 [HMC-N-01-B, 4-(3,5-Difluoropyridin-2-yl)-3-fluoro-N-((1s,4s)-4-hydroxy-4-methylcyclohexyl)benzenesulfonamide] | 27% | – | 2.12 h | % inhibition of disease ([4]; dose reduced from 10 to 1 mg/kg/day due to mortality, oral gavage): 38%
C[C@]1(O)CC[C@@H](NS(=O)(=O)c2ccc(-c3ncc(F)cc3F)cc2)CC1 [HMC-N-02-B, 4-(3,5-Difluoropyridin-2-yl)-N-((1s,4s)-4-hydroxy-4-methylcyclohexyl)benzenesulfonamide] | 23% | – | 2.8 h | –
C[C@]1(O)CC[C@H](NS(=O)(=O)c2ccc(-c3ncc(Cl)cc3Cl)cc2)CC1 [HMC-N-03-A, 4-(3,5-Dichloropyridin-2-yl)-N-((1r,4r)-4-hydroxy-4-methylcyclohexyl)benzenesulfonamide] | 13% | 4.3 h | – | i.v. AUC ([2]; dosed at 2 mg/kg intravenously (†)): 5102 ng·min/mL
C[C@]1(O)CC[C@@H](NS(=O)(=O)c2ccc(-c3ncc(Cl)cc3Cl)cc2)CC1 [HMC-N-03-B, 4-(3,5-Dichloropyridin-2-yl)-N-((1s,4s)-4-hydroxy-4-methylcyclohexyl)benzenesulfonamide] | 47% | – | 1.17 h | i.v. AUC [2, 8]: 1380* ng·min/mL
C[C@]1(O)CC[C@H](NS(=O)(=O)c2ccc(-c3ncc(Cl)cc3Cl)c(F)c2)CC1 [HMC-N-04-A, 4-(3,5-Dichloropyridin-2-yl)-3-fluoro-N-((1r,4r)-4-hydroxy-4-methylcyclohexyl)benzenesulfonamide] | 26% | 2.6 h | – | –
